This test has as its target cAMP and cAMP-inhibited cGMP 3',5'-cyclic phosphodiesterase 10A (Homo sapiens, UniProt Q9Y233). Briefly: Diaxonhit Phosphodiesterase Assay: The phosphodiesterase assay was developed using the LANCE cAMP kit (PerkinElmer). The assay buffer contained HBSS with 5 mM HEPES, 0.1% BSA, and 1.5 mM MgCl2, pH 7.4. PDE10A (BPS Bioscience) was used at 200 pg/well (with a specific activity of 3200 pmole/min/ug with assay conditions: 10 mM Tris-HCl, pH 7.4, 10 mM MgCl2, 1 mM MnCl2, 200 uM cAMP, 2.5 kU 5' nucleotidase, 37° C., 20 min) and PDE4D3 (BPS Bioscience) was used at 100 pg/well (with a specific activity of 32713 pmole/min/ug with assay conditions: 10 mM Tris-HCl, pH 7.4, 10 mM MgCl2, 1 mM MnCl2, 200 uM cAMP, 2.5 kU 5' nucleotidase, 37° C., 20 min). The Biotin-cAMP tracer, supplied in 10 mmol/L Tris-HCl buffered (pH 8.0) salt solution with 1 mmol/L ethylenediaminetetraacetic acid (EDTA), 0.1% bovine serum albumin (BSA), and 0.05% sodium azide, is used at a dilution of 1/375. The assay detection mixture contained the LANCE Eu-W8044 labeled streptavidin 1/2250 (supplied in 50 mmol/L Tris-HCl buffer). On the technique in general: In TR-FRET formats the signal depends on donor and acceptor labels being close together.

Sequence of cAMP and cAMP-inhibited cGMP 3',5'-cyclic phosphodiesterase 10A (Q9Y233 whole entry): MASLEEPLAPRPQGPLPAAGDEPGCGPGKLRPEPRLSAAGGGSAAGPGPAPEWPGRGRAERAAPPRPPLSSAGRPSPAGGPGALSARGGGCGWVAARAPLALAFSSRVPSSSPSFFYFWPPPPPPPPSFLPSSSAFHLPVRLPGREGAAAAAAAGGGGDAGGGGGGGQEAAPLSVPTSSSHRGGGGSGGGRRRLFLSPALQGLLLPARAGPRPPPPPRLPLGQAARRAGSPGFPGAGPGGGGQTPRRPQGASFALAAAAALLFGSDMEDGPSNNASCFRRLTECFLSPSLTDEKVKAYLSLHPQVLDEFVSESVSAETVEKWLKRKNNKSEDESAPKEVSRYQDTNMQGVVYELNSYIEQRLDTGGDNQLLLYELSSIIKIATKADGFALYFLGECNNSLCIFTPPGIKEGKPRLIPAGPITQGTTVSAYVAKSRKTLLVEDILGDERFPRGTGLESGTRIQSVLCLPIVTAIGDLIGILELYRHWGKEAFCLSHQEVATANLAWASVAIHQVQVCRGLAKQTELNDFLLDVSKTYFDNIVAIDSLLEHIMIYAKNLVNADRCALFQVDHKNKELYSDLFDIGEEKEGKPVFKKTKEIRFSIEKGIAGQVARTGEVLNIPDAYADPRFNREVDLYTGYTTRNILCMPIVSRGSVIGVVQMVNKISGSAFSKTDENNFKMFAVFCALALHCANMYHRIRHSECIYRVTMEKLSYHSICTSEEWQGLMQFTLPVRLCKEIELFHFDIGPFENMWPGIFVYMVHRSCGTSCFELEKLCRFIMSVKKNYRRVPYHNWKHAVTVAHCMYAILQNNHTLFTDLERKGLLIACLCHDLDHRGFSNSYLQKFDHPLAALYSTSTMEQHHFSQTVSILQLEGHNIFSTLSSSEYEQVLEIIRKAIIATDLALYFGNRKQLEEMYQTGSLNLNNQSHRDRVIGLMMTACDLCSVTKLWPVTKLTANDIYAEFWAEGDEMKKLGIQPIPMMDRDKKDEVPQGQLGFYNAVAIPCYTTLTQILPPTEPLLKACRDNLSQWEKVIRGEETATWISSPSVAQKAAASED

With `COc1cc2cncc(Cc3cnc4ccc(O)cc4c3)c2cc1OC`, the IC50 (in general, the concentration that inhibits the measured activity by half) came to 2.9 nM.

`COCc1ncc(Cc2ccc3cccc(N)c3n2)c2cc(OC)c(OC)cc12`: the half-inhibitory concentration (IC50) came out at 8.6 nM.

Consider `COCc1ncc(Cc2cnc3ccc(O)c(C(F)(F)F)c3c2)c2cc(OC)c(OC)cc12`, for which the IC50 turned out to be 4.5 nM.

Turning to `COc1cc2cncc(Cc3ccc4nc(-c5ccc(CO)cc5)oc4c3)c2cc1OC`, the IC50 stood at 20 nM.

Regarding `COc1cc2cncc(Cc3ccc4cccc(NS(N)(=O)=O)c4n3)c2cc1OC`, the IC50 was determined as 0.42 nM.

On to `CCCc1ncc(Cc2cnc3ccc(O)cc3c2)c2cc(OC)c(OC)cc12`, for which the IC50 was 9.4 nM.

As for `CCCc1ncc(Cc2ccc3c(C(F)(F)F)ccc(O)c3n2)c2cc(OC)c(OC)cc12`, the IC50 came out at 491 nM.

Consider `CCCc1ncc(Cc2ccc3cccc(OCc4nnn[nH]4)c3n2)c2cc(OC)c(OC)cc12`, for which the IC50 amounted to 4.7 nM.

For `COc1cc2cncc(Cc3cnc4ccc(OCC(N)=O)cc4c3)c2cc1OC`, the IC50 is 2.5 nM.

On to `CCCc1ncc(Cc2ccc3cccc(NC(=O)COC(C)=O)c3n2)c2cc(OC)c(OC)cc12`, for which the IC50 was 204 nM.

With `CCCc1ncc(Cc2ccc3cccc(OCC(=O)NC)c3n2)c2cc(OC)c(OC)cc12`, the IC50 was 51 nM.

As for `CCCc1ncc(Cc2ccc3cccc(NC(=O)CO)c3n2)c2cc(OC)c(OC)cc12`, the IC50 worked out at 15 nM.

On to `COc1cc2c(Cc3ccc4cccc(O)c4n3)cnc(C)c2cc1OC`, for which the IC50 amounted to 42 nM.

In the case of `CCCc1ncc(Cc2ccc3cccc(OCCNC(C)=O)c3n2)c2cc(OC)c(OC)cc12`, the IC50 was found to be 58 nM.

Take `COc1cc2cncc(Cc3ccc4oc(-c5ccc(N)cc5)nc4c3)c2cc1OC`: the IC50 was 49 nM.

With `CCc1ncc(Cc2ccc3cccc(OCCO)c3n2)c2cc(OC)c(OC)cc12`, the IC50 turned out to be 192 nM.

On to `CCc1ncc(Cc2ccc3cccc(OC(C)=O)c3n2)c2cc(OC)c(OC)cc12`, for which the IC50 is 3110 nM.

In the case of `CCc1ncc(Cc2ccc3cccc(OCc4nnn[nH]4)c3n2)c2cc(OC)c(OC)cc12`, the IC50 came to 31 nM.

Turning to `COc1cc2c(Cc3ccc4cccc(O)c4n3)cnc(C3CC3)c2cc1OC`, the IC50 was found to be 151 nM.

In the case of `COCc1ncc(Cc2ccc3cccc(OCCO)c3n2)c2cc(OC)c(OC)cc12`, the IC50 was determined as 28 nM.

As for `CCCc1ncc(Cc2ccc3c(C(F)(F)F)ccc(OCC(N)=O)c3n2)c2cc(OC)c(OC)cc12`, the IC50 was determined as 102 nM.

On to `COCc1ncc(Cc2ccc3cccc(O)c3n2)c2cc(OC)c(OC)cc12`, for which the IC50 was 19 nM.

Regarding `COc1cc2cncc(Cc3ccc4oc(-c5ccc(CO)cc5)nc4c3)c2cc1OC`, the IC50 came to 19 nM.

With `COc1cc2c(Cc3ccc4cccc(OCC(N)=O)c4n3)cnc(C)c2cc1OC`, the IC50 came out at 64 nM.

As for `COc1cc2c(Cc3ccc4cccc(NS(N)(=O)=O)c4n3)cnc(C)c2cc1OC`, the IC50 was determined as 0.71 nM.

In the case of `CCc1ncc(Cc2ccc3cccc(OCCC(=O)O)c3n2)c2cc(OC)c(OC)cc12`, the IC50 was 5 nM.

Turning to `COc1cc2cncc(Cc3ccc4oc(-c5cccc(CO)c5)nc4c3)c2cc1OC`, the IC50 stood at 28 nM.

In the case of `COc1cc2cncc(Cc3ccc4oc(-c5ccccc5CO)nc4c3)c2cc1OC`, the IC50 was found to be 95 nM.

As for `COc1cc2cncc(Cc3cnc4ccc(OCC(=O)O)cc4c3)c2cc1OC`, the IC50 was 7.9 nM.

For the molecule `COc1cc2c(Cc3ccc4cccc(OCC(N)=O)c4n3)cnc(C3CC3)c2cc1OC`, the IC50 is 67 nM.

For the molecule `COc1cc2cncc(Cc3ccc4cccc(N)c4n3)c2cc1OC`, the IC50 was found to be 13 nM.

Turning to `CCOC(=O)COc1cccc2ccc(Cc3cnc(COC)c4cc(OC)c(OC)cc34)nc12`, the IC50 was determined as 71 nM.

Regarding `CCCc1ncc(Cc2ccc3cccc(OC(C)=O)c3n2)c2cc(OC)c(OC)cc12`, the IC50 was 109 nM.

Consider `COc1cc2cncc(Cc3ccc4oc(-c5ccc(C#N)cc5)nc4c3)c2cc1OC`, for which the IC50 is 148 nM.

Turning to `COc1cc2c(Cc3cnc4ccc(O)cc4c3)cnc(C)c2cc1OC`, the IC50 was 18 nM.

Turning to `COCc1ncc(Cc2cnc3ccc(O)cc3c2)c2cc(OC)c(OC)cc12`, the IC50 was 5.6 nM.

Turning to `CCCc1ncc(Cc2cnc3ccc(O)c(C(F)(F)F)c3c2)c2cc(OC)c(OC)cc12`, the IC50 came to 13 nM.

Regarding `COCc1ncc(Cc2ccc3cccc(OCC(N)=O)c3n2)c2cc(OC)c(OC)cc12`, the IC50 stood at 21 nM.

With `COc1cc2cnc(C)c(Cc3ccc4cccc(O)c4n3)c2cc1OC`, the IC50 came to 41 nM.

On to `CCCc1ncc(Cc2ccc3oc(=O)[nH]c3c2)c2cc(OC)c(OC)cc12`, for which the IC50 came out at 64 nM.

Source of the values: ChEMBL document CHEMBL3886179, “Substituted 6, 7-dialkoxy-3-isoquinoline derivatives as inhibitors of phosphodiesterase 10 (PDE 10A)” (2015).
